Where a name gives a salt, the structure may show the parent alone.
Key:
[1] = molecular target: T1, Alpha-2A adrenergic receptor (Homo sapiens, UniProt P08913)
T1 sequence (P08913 whole entry): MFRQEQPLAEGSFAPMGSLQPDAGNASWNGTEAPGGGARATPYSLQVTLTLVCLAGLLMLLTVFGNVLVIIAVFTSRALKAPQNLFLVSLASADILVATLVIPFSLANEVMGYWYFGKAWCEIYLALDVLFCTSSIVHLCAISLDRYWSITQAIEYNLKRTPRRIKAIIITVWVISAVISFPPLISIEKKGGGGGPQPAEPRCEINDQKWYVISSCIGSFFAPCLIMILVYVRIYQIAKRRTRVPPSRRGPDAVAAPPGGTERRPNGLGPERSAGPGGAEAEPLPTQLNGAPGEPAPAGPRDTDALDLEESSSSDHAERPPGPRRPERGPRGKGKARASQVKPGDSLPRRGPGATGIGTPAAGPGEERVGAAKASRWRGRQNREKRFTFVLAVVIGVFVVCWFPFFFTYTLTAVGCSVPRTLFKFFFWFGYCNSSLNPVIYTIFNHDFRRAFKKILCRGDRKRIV

[2] = molecular target: T2, Alpha-1A adrenergic receptor (Homo sapiens, UniProt P35348)
T2 sequence (P35348 whole entry): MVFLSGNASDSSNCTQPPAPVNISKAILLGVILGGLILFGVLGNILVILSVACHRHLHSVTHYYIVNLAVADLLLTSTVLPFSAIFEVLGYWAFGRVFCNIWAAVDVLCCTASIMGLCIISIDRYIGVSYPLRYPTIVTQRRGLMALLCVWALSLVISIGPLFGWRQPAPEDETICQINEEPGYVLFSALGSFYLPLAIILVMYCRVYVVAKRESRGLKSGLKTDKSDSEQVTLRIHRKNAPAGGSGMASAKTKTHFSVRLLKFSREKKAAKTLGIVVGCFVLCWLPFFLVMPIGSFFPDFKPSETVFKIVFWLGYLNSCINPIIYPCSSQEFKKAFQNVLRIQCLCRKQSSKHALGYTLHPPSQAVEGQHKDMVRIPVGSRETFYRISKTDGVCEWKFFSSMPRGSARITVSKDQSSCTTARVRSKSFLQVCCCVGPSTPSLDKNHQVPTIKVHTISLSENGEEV

[3] = molecular target: D(2) dopamine receptor (Homo sapiens, UniProt P14416)
D(2) dopamine receptor, sequence (P14416 whole entry): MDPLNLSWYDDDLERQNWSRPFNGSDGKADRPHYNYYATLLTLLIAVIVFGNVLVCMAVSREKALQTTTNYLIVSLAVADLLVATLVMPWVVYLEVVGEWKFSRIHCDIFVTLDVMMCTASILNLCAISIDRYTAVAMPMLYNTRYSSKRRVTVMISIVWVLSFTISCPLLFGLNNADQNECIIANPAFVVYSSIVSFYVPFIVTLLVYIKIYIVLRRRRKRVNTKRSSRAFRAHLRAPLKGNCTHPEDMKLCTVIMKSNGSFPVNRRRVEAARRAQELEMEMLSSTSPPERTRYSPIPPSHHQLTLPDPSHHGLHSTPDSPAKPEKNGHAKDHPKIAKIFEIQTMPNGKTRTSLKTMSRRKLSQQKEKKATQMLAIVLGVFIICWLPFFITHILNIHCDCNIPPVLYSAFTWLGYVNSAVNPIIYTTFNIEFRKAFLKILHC

Row | Structure (SMILES) | Ki [1] | Ki [2] | Ki [3]
1 | CC(C)(C)[C@]1(O)CCN2C[C@H]3c4ccccc4CCc4cccc(c43)[C@@H]2C1 | 0.31 µM | 0.056 µM | –
2 | CN(C)CC/C=C1\c2ccccc2Sc2ccc(Cl)cc21 | – | – | 0.008 µM
3 | CN1CCCCC1CCN1c2ccccc2Sc2ccc([S+](C)[O-])cc21 (stereo unspecified) | 1.6 µM | 0.002 µM | 0.019 µM
4 | CN(C)CCCN1c2ccccc2Sc2ccccc21 | 0.9 µM | 0.006 µM | 0.16 µM
5 | CN1CCN(CCCN2c3ccccc3Sc3ccc(C(F)(F)F)cc32)CC1 | – | – | 0.0026 µM
7 | OCCN1CCN(CCCN2c3ccccc3Sc3ccc(Cl)cc32)CC1 [4-[3-(2-chlorophenothiazin-10-yl)propyl]-1-piperazineethanol] | – | – | 0.0014 µM
8 | O=C(CCCN1CCC2(CC1)C(=O)NCN2c1ccccc1)c1ccc(F)cc1 [8-[4-(4-fluorophenyl)-4-oxidanylidene-butyl]-1-phenyl-1,3,8-triazaspiro[4.5]decan-4-one] | 0.66 µM | 0.0012 µM | –
9 | CN1CCN(C2=Nc3ccccc3Oc3ccc(Cl)cc32)CC1 [13-chloro-10-(4-methylpiperazin-1-yl)-2-oxa-9-azatricyclo[9.4.0.0^{3,8}]pentadeca-1(11),3,5,7,9,12,14-heptaene] | – | 0.028 µM | –
10 | CN1CCN(CC/C=C2/c3ccccc3Sc3ccc(S(=O)(=O)N(C)C)cc32)CC1 [MLS000028463] | 0.2 µM | 0.011 µM | 0.00045 µM
11 | CCc1c(C)[nH]c2c1C(=O)C(CN1CCOCC1)CC2 (stereo unspecified) [Moban] | – | – | 0.12 µM
12 | CN(C)CCCN1c2ccccc2Sc2ccc(C(F)(F)F)cc21 [TRIFLUPROMAZINE] | – | – | 0.0028 µM

From BindingDB's records for doi:10.1016/0014-2999(84)90478-3 (Mayo Clinic, 1984)
